pIC50: −log10 of the molar value. Like-named read-outs stand apart in the source and are kept apart here.
System: Prostate-specific antigen (PSA) production in LNCaP cells
Test: PSA Assay (inhibition of PSA production in prostate cancer cells, ELISA)
Assay type: cell-based, human
Conditions: for IC50: Homo sapiens, LNCaP, 72 h, read-out: LNCAP IC50 (uM), inhibition of PSA production, LNCaP cells, R1881 1 ng/ml, three days, seven point assay
Description: PSA Assay (Inhibition Test of the Compound of the Present Invention on Prostate-Specific Antigen (PSA) Production in Various Prostate Cancer Cells).
Androgen dependent LNCaP cells were purchased from the American Type Culture Collection (ATCC, Manassas, Va.). These cells were grown in RPMI 1640 medium supplemented with 10% fetal bovine serum (FBS), 100 U/mL penicillin, 100 μg/mL streptomycin, and 0.25 μg/mL amphotericin B. The cells were maintained at 37° C. and 5% CO2. LNCaP cells between passage 20 and 35 were used for experiments. LNCaP is a hormone sensitive cell line. For the PSA assay, human prostate cancer cells LNCaP were seeded in a 96-well plate at a concentration of 5000 cells/100 μl/well. On the following day, Methyltrienolone (R1881, AR agonist) (final concentration 1 ng/ml), test compounds or bicalutamide (Casodex®, AstraZeneca) (final concentration 0.005 to 20 μM) were added. Three days after the addition, the concentration of PSA in the supernatant of the culture solution was measured by ELISA. ELISAs for human PSA in culture medium were performed using the ultra-sensitive assay procedure and reagents in the Active™ PSA assay kit (Diagnostic Systems Laboratories Inc., Webster, Tex.). Culture medium and standards (200 μl/well) were incubated in antibody-coated plates for 2 h at room temperature on a Titer plate shaker at 500-600 rpm. Wells were then washed five times. The HRP conjugate was diluted 1:20 with assay buffer, and 100 μl was added to all wells. The plates were incubated for 30 min at room temperature on the shaker and washed as before, and 100 μl TMB (3,3′,5,5′-tetramethylbenzidine, 0.4 g/l) was added. The plates were incubated for 10 min on the shaker, and the reaction was terminated with 100 μl stop solution. The plates were read using a plate reader at 450 nm with a 650 nm reference filter. PSA levels were normalized for differences in growth of LNCaP cells following various treatments as determined by the MTS assay. IC50 of PSA was calculated based on a seven point assay (concentrations of tested compound) and expressed as micromolar (uM).

Structure (SMILES)	IC50	pIC50 (read-out: LNCAP IC50, inhibition of PSA production, LNCaP cells, R1881 1 ng/ml, three days, seven point assay)
CC1(C)C(=O)N(c2ccc(C#N)c(C(F)(F)F)c2F)C(=S)N1c1ccc(CCCc2ncco2)c(F)c1 [Example 49, 3-Fluoro-4-{3-[3-fluoro-4-(3-oxazol-2-yl-propyl)-phenyl]-4,4-dimethyl-5-oxo-2-thioxo-imidazolidin-1-yl}-2-trifluoromethyl-benzonitrile]	0.49 µM	
CC1(C)C(=O)N(c2ccc(C#N)c(C(F)(F)F)c2F)C(=S)N1c1ccc(CCCC(=O)N2CCC(O)CC2)c(F)c1 [Example 51, 3-Fluoro-4-(3-{3-fluoro-4-[4-(4-hydroxy-piperidin-1-yl)-4-oxo-butyl]-phenyl}-4,4-dimethyl-5-oxo-2-thioxo-imidazolidin-1-yl)-2-trifluoromethyl-benzonitrile]	0.39 µM	
CN1CCN(C(=O)CCCc2ccc(N3C(=S)N(c4ccc(C#N)c(C(F)(F)F)c4F)C(=O)C3(C)C)cc2F)CC1 [Example 53, 3-Fluoro-4-(3-{3-fluoro-4-[4-(4-methyl-piperazin-1-yl)-4-oxo-butyl]-phenyl}-4,4-dimethyl-5-oxo-2-thioxo-imidazolidin-1-yl)-2-trifluoromethyl-benzonitrile]	0.41 µM	
CC1(C)C(=O)N(c2ccc(C#N)c(C(F)(F)F)c2F)C(=S)N1c1ccc(CCCC(=O)N2CCOCC2)nc1 [Example 55, 4-{4,4-Dimethyl-3-[6-(4-morpholin-4-yl-4-oxo-butyl)-pyridin-3-yl]-5-oxo-2-thioxo-imidazolidin-1-yl}-3-fluoro-2-trifluoromethyl-benzonitrile]	1.2 µM	
CC1(C)C(=O)N(c2ccc(C#N)c(C(F)(F)F)c2)C(=S)N1c1ccc(CCCC(=O)N2CCOCC2)nc1 [Example 56, 4-{4,4-Dimethyl-3-[6-(4-morpholin-4-yl-4-oxo-butyl)-pyridin-3-yl]-5-oxo-2-thioxo-imidazolidin-1-yl}-2-trifluoromethyl-benzonitrile]	3.64 µM	
CNC(=O)CCCc1ccc(N2C(=S)N(c3ccc(C#N)c(C(F)(F)F)c3F)C(=O)C2(C)C)cn1 [Example 57, 4-{5-[3-(4-Cyano-2-fluoro-3-trifluoromethyl-phenyl)-5,5-dimethyl-4-oxo-2-thioxo-imidazolidin-1-yl]-pyridin-2-yl}-N-methyl-butyramide]	1.91 µM	
CC1(C)C(=O)N(c2ccc(C#N)c(C(F)(F)F)c2F)C(=S)N1c1ccc(CCCC(=O)N2CCOCC2)c(F)c1 [Example 58, 3-fluoro-4-(3-(3-fluoro-4-(4-morpholino-4-oxobutyl)phenyl)-4,4-dimethyl-5-oxo-2-thioxoimidazolidin-1-yl)-2-(trifluoromethyl)benzonitrile]	0.53 µM	
CC1(C)C(=O)N(c2ccc(C#N)c(Cl)c2F)C(=S)N1c1ccc(CCCC#N)cc1 [Example 59, 2-chloro-4-(3-(4-(3-cyanopropyl)phenyl)-4,4-dimethyl-5-oxo-2-thioxoimidazolidin-1-yl)-3-fluorobenzonitrile]		6.32
CC1(C)C(=O)N(c2cc(C(F)(F)F)c(C#N)cc2F)C(=S)N1c1ccc(CCCc2ncc[nH]2)c(F)c1 [Example 60, 4-(3-(4-(3-(1H-imidazol-2-yl)propyl)-3-fluorophenyl)-4,4-dimethyl-5-oxo-2-thioxoimidazolidin-1-yl)-5-fluoro-2-(trifluoromethyl)benzonitrile]	3.3 µM	
N#Cc1ccc(N2C(=O)C3(CCC3)N(c3ccc(CCCC(=O)N4CC(O)C4)c(F)c3)C2=S)c(F)c1C(F)(F)F [Example 61, 3-Fluoro-4-(5-{3-fluoro-4-[4-(3-hydroxy-azetidin-1-yl)-4-oxo-butyl]-phenyl}-8-oxo-6-thioxo-5,7-diaza-spiro[3.4]oct-7-yl)-2-trifluoromethyl-benzonitrile]	0.19 µM	
CC1(C)C(=O)N(c2ccc(C#N)c(C(F)(F)F)c2F)C(=S)N1c1ccc(CCCc2ncco2)nc1 [Example 63, 4-{4,4-Dimethyl-3-[6-(3-oxazol-2-yl-propyl)-pyridin-3-yl]-5-oxo-2-thioxo-imidazolidin-1-yl}-3-fluoro-2-trifluoromethyl-benzonitrile]	0.1 µM	
CC1(C)C(=O)N(c2ccc(C#N)c(C(F)(F)F)c2)C(=S)N1c1ccc(CCCc2ncco2)nc1 [Example 64, 4-{4,4-Dimethyl-3-[6-(3-oxazol-2-yl-propyl)-pyridin-3-yl]-5-oxo-2-thioxo-imidazolidin-1-yl}-2-trifluoromethyl-benzonitrile]	0.45 µM	
N#Cc1ccc(N2C(=O)C3(CCC3)N(c3ccc(CCCc4ncco4)nc3)C2=S)c(F)c1C(F)(F)F [Example 65, 3-Fluoro-4-{5-[6-(3-oxazol-2-yl-propyl)-pyridin-3-yl]-8-oxo-6-thioxo-5,7-diaza-spiro[3.4]oct-7-yl}-2-trifluoromethyl-benzonitrile]	0.6 µM	
CC1(C)C(=O)N(c2ccc(C#N)c(C(F)(F)F)c2F)C(=S)N1c1ccc(CCCc2ncc[nH]2)nc1 [Example 66, 4-(3-(6-(3-(1H-imidazol-2-yl)propyl)pyridin-3-yl)-4,4-dimethyl-5-oxo-2-thioxoimidazolidin-1-yl)-3-fluoro-2-(trifluoromethyl)benzonitrile]	1.27 µM	
CC1(C)C(=O)N(c2ccc(C#N)c(C(F)(F)F)c2F)C(=S)N1c1ccc(CCCc2nccs2)nc1 [Example 67, 4-(4,4-dimethyl-5-oxo-3-(6-(3-(thiazol-2-yl)propyl)pyridin-3-yl)-2-thioxoimidazolidin-1-yl)-3-fluoro-2-(trifluoromethyl)benzonitrile]	0.27 µM	
N#Cc1ccc(N2C(=O)C3(CCC3)N(c3ccc(CCCc4nccs4)nc3)C2=S)c(F)c1C(F)(F)F [Example 68, 3-fluoro-4-(8-oxo-5-(6-(3-(thiazol-2-yl)propyl)pyridin-3-yl)-6-thioxo-5,7-diazaspiro[3.4]octan-7-yl)-2-(trifluoromethyl)benzonitrile]	0.61 µM	
COc1cc(N2C(=O)C(C)(C)N(c3ccc(CCCc4nccs4)nc3)C2=S)ccc1C#N [Example 69, 4-(4,4-dimethyl-5-oxo-3-(6-(3-(thiazol-2-yl)propyl)pyridin-3-yl)-2-thioxoimidazolidin-1-yl)-2-methoxybenzonitrile]	0.68 µM	
